What was measured:
Test in all cases: relative viability (nuclei count vs DMSO), 5 days (fraction); higher = more cells survive
Tanzisertib + Olaparib = compound: O[C@H]1CC[C@H](Nc2ncc3nc(Nc4c(F)cc(F)cc4F)n([C@H]4CCOC4)c3n2)CC1 [Tanzisertib] + O=C(c1cc(Cc2n[nH]c(=O)c3ccccc23)ccc1F)N1CCN(C(=O)C2CC2)CC1 [Olaparib] (partner 8 µM)
In short: (§1)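 Lung cancer cell lines in 1536-well plates were dosed by pin tool the day after seeding, either with one drug alone or with a fixed anchor-drug dose plus five library-drug doses (not always all listed) in √10 steps. After 5 days, cells were fixed and their nuclei stained in one step (final 0.05% Triton X-100, 1% formaldehyde, 1 ug/ml Hoechst), then counted on 4× images. Relative viability is the nuclei count in treated wells divided by that in vehicle wells. Values are medians of duplicate plates.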

[1] = compound: C[C@@H](N)c1ccc(C(=O)Nc2ccnc3[nH]ccc23)cc1 + Cc1cc(Nc2cc(N3CCN(C)CC3)nc(Sc3ccc(NC(=O)C4CC4)cc3)n2)n[nH]1 [Tozasertib] (partner 0.1 µM)
In short: as §1

Tanzisertib + Alpelisib = compound: O[C@H]1CC[C@H](Nc2ncc3nc(Nc4c(F)cc(F)cc4F)n([C@H]4CCOC4)c3n2)CC1 [Tanzisertib] + Cc1nc(NC(=O)N2CCC[C@H]2C(N)=O)sc1-c1ccnc(C(C)(C)C(F)(F)F)c1 [Alpelisib] (partner 2 µM)
In short: as §1

[2] = compound: C[C@@H](N)c1ccc(C(=O)Nc2ccnc3[nH]ccc23)cc1 + CS(=O)(=O)N1CCN(Cc2cc3nc(-c4cccc5[nH]ncc45)nc(N4CCOCC4)c3s2)CC1 [Pictilisib] (partner 1 µM)
In short: as §1

UMC-11
relative viability (Tanzisertib + Olaparib; first compound 0.08 µM): 0.355
relative viability (Tanzisertib + Olaparib; first compound 0.253 µM): 0.412
relative viability (Tanzisertib + Olaparib; first compound 0.8 µM): 0.411
relative viability (Tanzisertib + Olaparib; first compound 2.53 µM): 0.501
relative viability (Tanzisertib + Olaparib; first compound 8 µM): 0.388
relative viability ([1]; first compound 0.04 µM): 0.215
relative viability ([1]; first compound 0.1265 µM): 0.18
relative viability ([1]; first compound 0.4 µM): 0.205
relative viability ([1]; first compound 4 µM): 0.198
relative viability (Tanzisertib + Alpelisib; first compound 0.08 µM): 0.835
relative viability (Tanzisertib + Alpelisib; first compound 0.253 µM): 0.987
relative viability (Tanzisertib + Alpelisib; first compound 0.8 µM): 0.999
relative viability (Tanzisertib + Alpelisib; first compound 2.53 µM): 0.956
relative viability (Tanzisertib + Alpelisib; first compound 8 µM): 1.13
relative viability ([2]; first compound 0.04 µM): 0.715
relative viability ([2]; first compound 0.1265 µM): 0.759
relative viability ([2]; first compound 0.4 µM): 0.93
relative viability ([2]; first compound 1.265 µM): 0.177
relative viability ([2]; first compound 4 µM): 0.767
